Results: patent US20110117055A1, “Methods of Treating Hepatitis C Virus with Oxoacetamide Compounds” (priority 2009, published 2011)
“Also recorded” adds a separate entry of the source. Where two headings read alike, the source gives them in different places.

Legend:
HCV2aChLuc virus = experiment: In vitro HCVcc entry assay: HCV2aChLuc virus infection of Huh7 cells, Renilla luciferase read-out; type: cell-based, HCV genotype 2a; details: for IC50: Hepatitis C virus
[1] = tested on: Bovine viral diarrhea virus (BVDV); experiment: BVDV plaque-forming assay in MDBK cells; type: cell-based; details: even at 1 μM
Protocol: Bovine viral diarrhea virus (BVDV) is a closely related virus to HCV, belonging to the same Family, Flaviviridae. To validate the specificity of antiviral activity, BVDV infection was done with MDBK cells in the presence of compounds provided herein. MDBK cells (70 to 80% confluent) were infected with a diluted virus. Following 1 h of adsorption at 37° C., cells were washed once with DMEM, overlaid with 1.5% low-melting-point (LMP) agarose (Gibco-BRL) in MEM containing 5% HS, and incubated at 37° C. To assay for plaque-forming virus, after 3 days monolayers were fixed with 3.7% formaldehyde for 2 h at room temperature, the agarose plugs were removed, and the monolayers were stained with crystal violet.

[2] = tested on: HCV1a chimeric virus and 2a chimeric virus; experiment: Combination of viral entry inhibitor with ribavirin; type: cell-based, HCV; details: ribavirin 15 μM
Protocol: Varying amounts of each compound were coincubated with a high concentration of ribavirin (15 μM).

HCV = experiment: Combination of viral entry inhibitor with HCV protease inhibitor VX-950; type: cell-based; details: fixed ratio based on EC50
Protocol: Additional combination studies of Compound 1 and Compound 5 with the HCV NS3 protease inhibitor VX-950 were conducted. Compound 1 and Compound 5 were tested singly and in combination with VX-950. The ratio of the two compounds, based on the compound's EC50, remained fixed across the dosing range. The potential cytotoxicity of individual compounds was assessed with a luminescent ATP-based cell viability assay (Cell Titer-Glo; Promega). Cell culture and luciferase compound assays were performed as previously described in Example 3.
Compound interactions were quantified by the approach described by Chou and Talalay, relying on the median effect principle and the multiple-drug effect equation. […] Isobolograms were generated for each combination tested and were used to determine the additivity, synergism or antagonism of inhibitor combinations. Combination indices (CI) were determined with Calcusyn (Biosoft) for each experiment at the EC50, EC75, and EC90 of the combination. By convention, a CI of <0.9 was considered synergistic, a CI of ≧0.9 or ≦1.1 was considered additive, and a CI of >1.1 was deemed antagonistic. […] Combination indices (CI) were determined with Calcusyn (Biosoft) for each experiment at the EC50, EC75, and EC90 of the combination. By convention, a CI of <0.9 was considered synergistic, a CI of ≧0.9 or ≦1.1 was considered additive, and a CI of >1.1 was deemed antagonistic.
HCV2aChLuc (NS3:A156S) = experiment: Infectivity of protease mutant virus versus wild type in the presence of compounds; type: cell-based, HCV genotype 2a; details: HCV2aChLuc (NS3:A156S) vs wild type HCV2aChLuc
Text: Therefore, we introduced A156S mutation in the backbone of HCV2aChLuc genome and investigated the infectivity of the mutant virus in the presence of compounds.

[3] = tested on: HCV2aCh (E2:G451R) mutant virus; experiment: E2:G451R mutant virus, Taqman assay for viral RNA copies; type: cell-based, HCV genotype 2a; details: 0-500 nM; about 27.5 hours after virus exposure
Protocol: Two 24-well plates were seeded with 4×10^4 cells/well. The following day, cell culture supernatant was aspirated and cells were exposed to HCV2aCh wild type (black bars) and HCV2aCh (E2:G451R) mutant (blue bars), Approximately 250 μl of cell culture virus was added to each well (˜1×10^4 TCID/well or moi ˜0.25). Immediately after the addition of virus to the well, 2.5 μl of 100× concentration of compound was added to each well—and mixed multiple times with a 100 ul pipet tip—to achieve final compound dilutions: 0 nM, 5 nM, 15 nM, 50 nM, 150 nM, and 500 nM. Compound 5 was tested. Each plate was processed consecutively. After addition of virus and compound the plates were placed in the incubator for ˜3.5 hours (37° C., 5% CO2). Following incubation, the supernatant was replaced with fresh media (˜1 ml/well) and plates were returned to incubator. Twenty-four hours later (˜27.5 hours following virus exposure to the cells), cells were washed once with 1 ml of PBS and then the cells were processed for Taqman analysis.

Jc1-luc virus = experiment: Luciferase compound activity assay, Jc1-luc virus in Huh7.5.1 cells; type: cell-based, HCV genotype-2a; details: Hepatitis C virus, Huh-7.5.1
Protocol: Cell culture. Human hepatoma Huh-7.5.1 cells or Huh7 cells were grown at 37° C. and 5% CO2 in Dulbecco's modification of Eagle's medium supplemented with 2 mM L-glutamine, 1 mM Sodium pyruvate, 1× Non-essential amino acids mix, 100 units/ml penicillin, 100 μg/ml streptomycin, and 10% fetal bovine serum.
Virus plasmids. The chimeric full-length construct pFL-JC1, a GT2a/2a chimera consisting of structural genes from the J6CF isolate and non-structural genes from the JFH1 isolate, has been described previously. See Backes et al., J. Virol. 2010, 84:5775-89; Schaller et al., J. Virol., 2007, 81:4591-603; Koutsoudakis et al., J. Virol. 2006, 80:5308-20; Pietschmann et al., Proc. Natl. Acad. Sci., 2006, 103:7408-13. The firefly luciferase gene has been inserted to pFL-Jc1 to develop a plamid pFL-Jc1-luc for use as a reporter of viral replication. See Amako et al., J. Virol. 2009, 83:9237-46. Specifically, the pFL-JC1-luc construct can be utilized to develop an infectious HCV cell culture system to test novel HCV inhibitors, including entry inhibitors, in vitro using luciferase expression.
Preparation of infectious HCV. Jc1-luc or HCV2a/2aChRluc RNA was in vitro transcribed using T7 RiboMAX™ Express Large Scale RNA Production System (Promega). After RNA clean up (Qiagen RNeasy Mini kit), transfection was performed as previously described.
400 microliters of a Huh-7.5.1 or Huh7 cell suspension (10^7 cells/ml) was placed in a 0.4-cm cuvette with 10 μg of Jc1-luc or HCV2a/2aChRluc RNA and electroporated (Bio-Rad Gene Pulser System) using a single square wave at 260 V and 25 ms pulse length. The cells were plated in 15-cm tissue culture dishes (Corning) and supernatant was harvested and concentrated using a centrifugal filter (Amicon 100K, Millipore).
Luciferase compound activity assay. Cell culture and luciferase compound assays were performed as previously described. See Wyles et al., J. Virol. 2007, 81:3005-8; Wyles et al., Antimicrob Agents Chemother. 2009, 53:2660-2; Grünberger et al., J. Infect. Dis. 2008, 197:42-5; Wyles et al., Antimicrob Agents Chemother, 2008, 52:1862-4. Briefly, Huh7.5.1 cells were seeded into 96-well plates at a density of 10,000 cells per well in 100 μl medium. After incubating overnight for attachment, Jc1-luc virus at an MOI 0.01 was added to wells with or without compounds at the specified concentrations. All conditions were run in triplicate. After 24 hours, medium was aspirated and replaced with 100 μl of complete medium containing an identical concentration of compound(s) followed by additional 48 hour incubation. The luciferase assay (Bright-Glo; Promega) was carried out according to the manufacturer's instructions. Luciferase activity was determined using a microplate luminometer (Veritas microplate luminometer; Turner Biosystems). […]

SMILES: COc1c(NC(=O)C(=O)c2ccc(OCCN3CCOCC3)c3ccccc23)cc(C(C)(C)C)cc1NS(C)(=O)=O [Compound 5, N-(5-tert-butyl-2-methoxy-3-(methylsulfonamido)phenyl)-2-(4-(2-morpholinoethoxy)naphthalen-1-yl)-2-oxoacetamide]
- IC50 (HCV2aChLuc virus; Huh-7, 72 h, read-out: observed IC50, Huh7 cells co-incubated with HCV2aChRluc virus and compound for 3 days, repeated assays (n>30)): 0.05 to 0.5 nM
- IC50 (HCV2aChLuc virus; Huh-7, read-out: Activity class (IC50), tested according to the method of Example 3): < 5 nM
- inhibitory effect on HCV2aChLuc viral entry (HCV2aChLuc virus; Huh7 cells, 3 days): dose-dependent inhibitory effect; also recorded: dose-dependent inhibition
- inhibitory effect on BVDV infection [1]: No significant inhibitory effect
- effect of combination with ribavirin [2]: no antagonistic effect
- effect of combination with VX-950 (HCV): additive to slightly synergistic effects
- resistance of NS3:A156S mutant virus versus wild type (inhibition of infectivity) (HCV2aChLuc (NS3:A156S)): no significant difference
- sensitivity of E2 mutant virus relative to wild-type virus, Taqman assay for viral RNA copies [3]: greater resistance
- EC50 (Jc1-luc virus): 20.2 ± 1.37 nM
